Starred links: 1 amine or outer side, 2 acyl side, 3 side chain; linkers in the order of their positions; H or OH if unused. Positions of bridges follow the written chain, without caps; N, C: chain ends. Non-standard residues stand in square brackets, D forms with d. Residues, ends and D or L forms follow the SMILES beside them. Chains are numbered I, II in the order given. Actinocin(9to1) = Cc1c2oc3c(C)ccc(C(=O)[*:1])c3nc-2c(C(=O)[*:2])c(N)c1=O; NMeV = CN[C@H](C(=O)O)C(C)C; Sar = CNCC(=O)O
Experiments:
Type in all cases: cell-based
human OCTN1 [1] = target: T1, human OCTN1 (Homo sapiens, UniProt Q9H015, I306T/L503F); assay: Transport experiment in HEK293 cells transfected with human OCTN1 (pcDNA3/OCTN1); conditions: for uptake of labeled substrate into human OCTN1-transfected cells: HEK293 cells, compared with Mock or untreated cells, 37° C.
T1 construct: cDNA containing the entire ORF which was cleaved out with SmaI and EcoRI was integrated; expressed in transfected cells; host or cells: Xenopus oocytes injected with 15 ng cRNA transcribed in vitro from pcDNA3/OCTN1
T1 sequence (Q9H015 1-551 I306T/L503F): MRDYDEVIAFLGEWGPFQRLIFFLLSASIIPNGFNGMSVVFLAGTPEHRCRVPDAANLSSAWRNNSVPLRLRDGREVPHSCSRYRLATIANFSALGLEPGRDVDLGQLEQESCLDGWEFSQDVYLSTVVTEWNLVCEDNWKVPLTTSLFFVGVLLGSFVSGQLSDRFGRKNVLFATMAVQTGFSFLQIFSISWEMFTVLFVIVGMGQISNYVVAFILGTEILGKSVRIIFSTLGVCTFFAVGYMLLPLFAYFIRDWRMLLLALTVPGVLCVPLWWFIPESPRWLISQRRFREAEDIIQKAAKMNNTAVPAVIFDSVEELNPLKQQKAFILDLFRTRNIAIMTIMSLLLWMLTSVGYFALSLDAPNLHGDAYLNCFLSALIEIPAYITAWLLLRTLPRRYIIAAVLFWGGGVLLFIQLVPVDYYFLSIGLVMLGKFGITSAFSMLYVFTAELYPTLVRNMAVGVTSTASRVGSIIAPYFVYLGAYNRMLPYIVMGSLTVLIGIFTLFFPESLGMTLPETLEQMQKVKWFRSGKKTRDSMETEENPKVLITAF
Procedure: The human fetal-kidney-derived cell strain, HEK 293 cells were transfected with the plasmid pcDNA3/OCTN1 and pcDNA3 vector containing no insert as a control by the calcium phosphate method. First, the plasmid DNA (10 μg), a Hepes buffer solution (137 mM NaCl, 5 mM KCl, 0.7 mM Na2HPO4, 6 mM Dextrose, and 21 mM Hepes pH 7.1) (1 ml), and 2 M CaCl2 (62.5 μl) were combined and allowed to stand at room temperature for 30 min or more to form calcium phosphate coprecipitates. After cells were plated on 10-cm plates at 1.5×10^6 cells per plate and cultured for 24 h, the calcium phosphate coprecipitates were added thereto, and the cells were further cultured for 24 h. Then, plates were washed with phosphate buffered saline (PBS), and the cells were further cultured for 24 h after the addition of fresh culture medium.
(§1) Transport experiment was performed using cells transfected with the plasmid DNA or untreated cells according to the following procedures. Cells were detached from plates using a rubber policeman, suspended in a transport buffer (containing 125 mM NaCl, 4.8 mM KCl, 5.6 mM (+)-glucose, 1.2 mM CaCl2, 1.2 mM KH2PO4, 1.2 mM MgSO4, and 25 mM Hepes pH 7.4), and pre-incubated for 20 min. An appropriate amount of each labeled substrate ([^14C]TEA (tetraethylammonium) (NEN), [^3H]carnitine (L-carnitine hydrochloride) (Amersham), [^3H]PCG (benzylpenicillin) (Amersham), [^3H]quinidine (ARC), or [^3H]pyrilamine (mepyramine) (Amersham)) was then added to the cell suspension, and the resulting mixture was incubated at 37° C. for a predetermined period of time. Incubated cells were overlaid on a silicon layer prepared by layering a mixture of silicon oil and liquid paraffin (specific gravity 1.022) on a 3 M KCl layer, and separated by centrifugation. Radioactivity of cells was measured to determine the into-the-cell transport activity. In this case, 1×10^6 cells were used as one point of cells. HEK 293 cells were cultured in Dulbecco's MEM containing 10% fetal calf serum (FCS) in an atmosphere of 5% carbon dioxide at 37° C.
First, the transporter capacity was measured in the cells transfected with pcDNA3/OCTN1 and untreated cells using TEA as a substrate (FIG. 5). […] Next, effects of the addition of unlabeled TEA on the labeled substrate uptake in this system (cold inhibition) was examined (FIG. 6). […] Next, to obtain the Km (Michaelis constant) value of human OCTNL to TEA, the uptake of ^14C-TEA with various concentrations was measured (FIG. 7). […] Next, the transport capacity of human OCTN1 for other substrate than TEA was examined (FIG. 8).

human OCTN1 [2] = target: T1, human OCTN1; assay: Transport experiment using Xenopus oocytes injected with human OCTN1 cRNA; conditions: 25° C., 1 h, compared with water-injected oocytes
Procedure: cRNA was synthesized in vitro using T7 RNA polymerase with pcDNA3/OCTN1 as a template. This cRNA was diluted to the concentration of 0.3 ng/nl, and its 50-nl (15 ng) aliquot was injected into a single oocyte. As a control, 50 nl of distilled water was injected. These oocytes were cultured for 3 days, and then used for the transport experiment. After being preincubated in an uptake buffer (0.05% Tween 80, 100 mM NaCl, 2 mM KCl, 1 mM CaCl2, 1 mM MgCl2, and 10 mM Hepes pH 7.4) at 25° C. for 20 min, the oocytes were transferred to the uptake buffer containing 0.5 ml of labeled substrate to initiate the uptake. After the incubation at 25° C. for 1 h, the oocytes were washed in the ice-cold uptake buffer three times to terminate the reaction. The oocytes were solubilized in 5% SDS and mixed with Cleasol I (a cocktail for liquid scintillation counter) (3 ml) to determine the radioactivity. The radioactivity of the uptake buffer which contained the labeled compound at the time of incubation (external solution) (10 μl) was also similarly measured. The ratio of the radioactivity (dpm value) in the oocytes to that (dpm value) in the external solution was used as the uptake activity.

human OCTN2 = target: T2, human OCTN2 (Homo sapiens, UniProt O76082); assay: Transport experiment in HEK cells transfected with human OCTN2 (pcDNA3/OCTN2); conditions: for transport by human OCTN2: HEK cells transfected with pcDNA3/OCTN2, compared with Mock and pcDNA3/OCTN1
T2 construct: clones from both fragments were ligated at the PstI site in the overlapping region; expressed in transfected cells
T2 sequence (O76082 1-557): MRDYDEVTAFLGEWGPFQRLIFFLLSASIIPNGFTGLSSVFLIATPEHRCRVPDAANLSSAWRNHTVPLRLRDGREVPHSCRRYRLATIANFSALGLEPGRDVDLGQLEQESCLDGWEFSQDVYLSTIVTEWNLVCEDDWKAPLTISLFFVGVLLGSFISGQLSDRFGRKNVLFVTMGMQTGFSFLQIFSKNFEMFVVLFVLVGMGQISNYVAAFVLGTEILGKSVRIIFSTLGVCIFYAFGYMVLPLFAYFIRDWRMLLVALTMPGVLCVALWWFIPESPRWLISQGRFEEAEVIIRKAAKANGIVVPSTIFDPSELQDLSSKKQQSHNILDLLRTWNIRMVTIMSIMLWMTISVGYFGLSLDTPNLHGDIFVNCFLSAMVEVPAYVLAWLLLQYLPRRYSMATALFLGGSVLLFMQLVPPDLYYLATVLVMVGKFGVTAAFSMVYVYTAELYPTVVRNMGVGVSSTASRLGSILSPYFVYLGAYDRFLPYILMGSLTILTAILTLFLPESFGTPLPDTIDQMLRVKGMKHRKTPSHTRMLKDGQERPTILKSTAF
Procedure: as §1
HEK cells were transfected with pcDNA3/OCTN2, the pcDNA3 vector containing no insert (Mock), or pcDNA3/OCTN1 by the method described in Example 6 to perform transport experiments.
Next, Na^+ dependence of human OCTN2-mediated carnitine transport was examined using a transport buffer in which Na^+ was replaced with K+(FIG. 12).

uptake of labeled substrate into human OCTN1-transfected cells (human OCTN1 [1])	Structure (SMILES)	uptake activity / transport capacity of human OCTN1 cRNA-injected oocytes (human OCTN1 [2])	further results
no significant increase in the uptake	CC1(C)S[C@@H]2[C@H](NC(=O)Cc3ccccc3)C(=O)N2[C@H]1C(=O)O [PCG, benzylpenicillin]		
	Cc1c2oc3c(C)ccc(C(=O)N[C@@H]4C(=O)N[C@H](C(C)C)C(=O)N5CCC[C@H]5C(=O)N(C)CC(=O)N(C)[C@@H](C(C)C)C(=O)O[C@@H]4C)c3nc-2c(C(=O)N[C@@H]2C(=O)N[C@H](C(C)C)C(=O)N3CCC[C@H]3C(=O)N(C)CC(=O)N(C)[C@@H](C(C)C)C(=O)O[C@@H]2C)c(N)c1=O [actinomycin D] (I: T[dV]P[Sar][NMeV] / II: T[dV]P[Sar][NMeV]; ester I:1-I:C, II:1-II:C; linker I:N-II:N via Actinocin(9to1))	has the activity to transport	
	COc1cccc2c1C(=O)c1c(O)c3c(c(O)c1C2=O)C[C@@](O)(C(C)=O)C[C@@H]3O[C@H]1C[C@H](N)[C@H](O)[C@H](C)O1 [daunomycin]	has the activity to transport	
	COc1cc([C@@H]2c3cc4c(cc3[C@@H](O[C@@H]3O[C@@H]5CO[C@@H](C)O[C@H]5[C@H](O)[C@H]3O)[C@H]3COC(=O)[C@H]23)OCO4)cc(OC)c1O [etoposide]	has the activity to transport	
significant increase in the uptake	COc1ccc(CN(CCN(C)C)c2ccccn2)cc1 [pyrilamine]	expresses the transport capacity	
significant increase in the uptake	C=C[C@H]1C[N@@]2CC[C@H]1C[C@@H]2[C@@H](O)c1ccnc2ccc(OC)cc12 [quinidine]	expresses the transport capacity	
	CC[C@]1(O)C[C@@H]2CN(CCc3c([nH]c4ccccc34)[C@@](C(=O)OC)(c3cc4c(cc3OC)N(C)[C@H]3[C@@](O)(C(=O)OC)[C@H](OC(C)=O)[C@]5(CC)C=CCN6CC[C@]43[C@@H]65)C2)C1 [vinblastine]	has the activity to transport	

Structure (SMILES)	uptake of labeled substrate into human OCTN1-transfected cells (human OCTN1 [1])	uptake activity / transport capacity of human OCTN1 cRNA-injected oocytes (human OCTN1 [2])	further results
CC[N+](CC)(CC)CC [TEA, tetraethylammonium]	reaction time-dependent TEA uptake into the human OCTN1-transfectd cells was clearly observed	expresses the transport capacity	transport by human OCTN1 (comparison with OCTN2) (human OCTN1 [1]; HEK cells transfected with pcDNA3/OCTN1, Example 8): efficiently transported by human OCTN1; maximal velocity, Vmax (human OCTN1 [1]; Lineweaver-Burk plot of net uptake (OCTN1-transfected minus Mock HEK293 cells), 14C-TEA): 6.68±0.34 nmol/3 min/mg; Km (human OCTN1 [1]; Lineweaver-Burk plot of net uptake (OCTN1-transfected minus Mock HEK293 cells), 14C-TEA, read-out: Km (Michaelis constant) value of human OCTN1 to TEA): 440 ± 40 µM; effect of unlabeled (cold) TEA on labeled substrate uptake (cold inhibition) (human OCTN1 [1]; human OCTN1-transfected HEK293 cells): decrease in the apparent uptake of the labeled substrate was clearly seen depending on the concentration of cold TEA added; transport by human OCTN2 (human OCTN2): hardly transported
C[N+](C)(C)C[C@H](O)CC(=O)[O-].Cl [carnitine, L-carnitine hydrochloride]	significant increase in the uptake	expresses the transport capacity	transport by human OCTN2 (human OCTN2): high capacity to efficiently transport; carnitine transport activity of human OCTN2 in the absence of Na+ (human OCTN2; absence of Na+): no such activity; carnitine transport activity of human OCTN2 in the presence of Na+ (human OCTN2; presence of Na+): time-dependent carnitine transport activity; Na+ dependence of human OCTN2-mediated carnitine transport (human OCTN2; transport buffer in which Na+ was replaced with K+): completely depended on the presence of Na^+

From US7947470B2, “Polynucleotides encoding hOCTN1 polypeptide” (Chugai Seiyaku Kabushiki Kaisha, priority 1997, dated 2011)
